The results in this text go back to patent US9290541B2, “TCL1 peptides for immunotherapy” (Board of Regents, The University of Texas System, priority 2011, dated 2016).

One assay relates to T2 cells. Nature of the assay: 4-hour 51Cr-release cytotoxicity assay with peptide-pulsed T2 cells. The note with it: 4-hour 51Cr release. It is filed as cell-based, human. As for the experimental part:
(§1) FIGS. 3A-E: TCL1-specific cytotoxic T cells can be generated from normal donors. (FIG. 3A) PBMCs from HLA-A2^+ normal donors were stimulated with overlapping 15-mer peptides spanning the entire length of the TCL1 protein (see Table 2). T cells from each condition were washed and incubated with autologous CD3-depleted PBMC as antigen-presenting cells (APC) in the presence or absence of the corresponding peptide. After 18 hours, the production of IFN-γ was determined in the supernatants by ELISA. Asterisk indicates significant IFN-γ production compared with control (P<0.05). Representative data from one of three normal donors tested is shown. (FIG. 3B) T cell lines generated from HLA-A2^+ normal donors using TCL165-79 peptide were incubated with APC in the presence or absence of the TCL165-79 peptide or control HIV Gag77-85 peptide, and intracellular cytokine assay was performed. The percentage of CD4^+ and CD8^+ T cells producing IFN-γ are shown. (FIG. 3C) TCL165-79 peptide-specific T cells were incubated with T2 cells or EBV-transformed B lymphoblastoid cell lines (IHW1003, IHW1019, IHW1089, and IHW1135) mismatched at their MHC class I locus in the presence of the TCL165-79 peptide or control HIV Gag77-85 peptide. IFN-γ production was determined as in (FIG. 3A). The HLA-A alleles for each of the cell lines are shown. (FIG. 3D, FIG. 3E) A 4-hour ^51Cr-release cytotoxicity assay was performed. TCL165-79 peptide-specific T cells were incubated with T2 cells alone or T2 cells pulsed with TCL165-79 peptide or control HIV Gag77-85 peptide, at various effector:target ratios. For MHC blocking assay, an effector:target ratio of 20:1 was used in the presence or absence of isotype control antibody or blocking antibodies against MHC class I, MHC class II, HLA-A2, or HLA-B and C. All cytotoxicity assays were performed in triplicate wells and mean and standard deviation are shown.
(§2) FIGS. 4A-D: TCL171-78 is the minimal HLA-A*0201-binding peptide. (FIG. 4A) TCL165-79 peptide-specific T cells derived from HLA-A2^+ normal donors were incubated in the presence or absence of T2 cells and TCL165-79 derived truncated peptides (SEQ ID NOS:1-2; SEQ ID NOS:12-17; SEQ ID NOS:3-11; and SEQ ID NO:18) Flu matrix peptide (FMP58-66) and Gag77-85 peptide were used as controls. After 18 hours, the production of IFN-γ was determined in the supernatants by ELISA. (FIG. 4B) T2 cells were incubated with TCL165-79-derived truncated peptides (SEQ ID NOS:1-2; SEQ ID NOS:12-17; SEQ ID NOS:3-11; and SEQ ID NO:18), and the HLA-A2 binding affinity of each peptide was determined by flow cytometry. The T2 binding index was calculated as described in Materials and Methods. […] (FIG. 4D) TCL165-79 peptide-specific CD8^+ T cells or irrelevant T-cell line were stained with TCL171-78 or HIV Gag77-85 tetramers and analyzed by flow cytometry. […]
(§3) FIGS. 6A-E: TCL171-78 peptide-specific T cells can be generated from lymphoma patients. (FIG. 6A) PBMC and tumor-infiltrating lymphocytes (TILs) derived from HLA-A2^+ patients with chronic lymphocytic leukemia (CLL) or follicular lymphoma (FL) were stimulated in vitro with TCL165-79 After five stimulations, IFN-γ production in response to TCL165-79 peptide was determined as in FIG. 3A. […]

The next assay relates to CD8+ T cells. Put plainly: Tetramer staining by flow cytometry. It is filed as cell-based, human. As to conditions: for percentage of tetramer positive CD8+ T cells, median / percentage of tetramer positive CD8+ T cells, range: two in vitro stimulations with TCL165-79. As for the experimental part:
FIGS. 4A-D: TCL171-78 is the minimal HLA-A*0201-binding peptide. (FIG. 4A) TCL165-79 peptide-specific T cells derived from HLA-A2^+ normal donors were incubated in the presence or absence of T2 cells and TCL165-79 derived truncated peptides (SEQ ID NOS:1-2; SEQ ID NOS:12-17; SEQ ID NOS:3-11; and SEQ ID NO:18) Flu matrix peptide (FMP58-66) and Gag77-85 peptide were used as controls. After 18 hours, the production of IFN-γ was determined in the supernatants by ELISA. (FIG. 4B) T2 cells were incubated with TCL165-79-derived truncated peptides (SEQ ID NOS:1-2; SEQ ID NOS:12-17; SEQ ID NOS:3-11; and SEQ ID NO:18), and the HLA-A2 binding affinity of each peptide was determined by flow cytometry. The T2 binding index was calculated as described in Materials and Methods. (FIG. 4C) TCL165-79 (SEQ ID NO:1) peptide-specific T cells were incubated with T2 cells pulsed with TCL165-79-derived truncated peptides (SEQ ID NO:1; SEQ ID NO:8; SEQ ID NO:10; SEQ ID NO:11; SEQ ID NO:18) or control HIV Gag77-85 peptide and a 4-hour ^51Cr-release cytotoxicity assay was performed. The percent specific lysis is shown. (FIG. 4D) TCL165-79 peptide-specific CD8^+ T cells or irrelevant T-cell line were stained with TCL171-78 or HIV Gag77-85 tetramers and analyzed by flow cytometry. The percentage of tetramer positive T cells is shown. Data in panels A-D are representative of three independent experiments each.
FIGS. 6A-E: TCL171-78 peptide-specific T cells can be generated from lymphoma patients. (FIG. 6A) PBMC and tumor-infiltrating lymphocytes (TILs) derived from HLA-A2^+ patients with chronic lymphocytic leukemia (CLL) or follicular lymphoma (FL) were stimulated in vitro with TCL165-79 After five stimulations, IFN-γ production in response to TCL165-79 peptide was determined as in FIG. 3A. (FIG. 6B, FIG. 6E) The cytotoxic function of TCL165-79 peptide-specific T cells generated above was tested against T2 cells pulsed with TCL165-79 peptide or HIV Gag77-85 peptide (FIG. 6B) or primary autologous or allogeneic HLA-A2^+ or HLA-A2^− mantle cell lymphoma (MCL Tu) or FL tumor cells (FL Tu) or tumor-free PBMC from MCL3 and FL5 patients (MCL3-PB and FL5-PB) or HLA-A2^+ MCF-7 cell line (FIG. 6E). (FIG. 6C) The percentage of tetramer positive CD8^+ T cells in each of the TCL1-specific T-cell lines generated from lymphoma patients is shown. (FIG. 6D) The expression of TCL1 in each of the primary lymphoma samples as determined by flow cytometry is shown. All cytotoxicity assays were performed in triplicate wells and mean and standard deviation are shown. CLL1-PB-T: TCL1-specific CTL generated from peripheral blood T cells of CLL patient 1; FL5-PB-T: TCL1-specific CTL generated from peripheral blood T cells of FL patient 5; FL5-TILs-T: TCL1-specific CTL generated from tumor infiltrating T cells of FL patient 5.
FIGS. 7A-B: TCL171-78 peptide-specific T cells are increased in lymphoma patients. PBMCs from HLA-A2^+ normal donors (ND, n=8) or lymphoma patients [chronic lymphocytic leukemia (CLL, n=2), mantle cell lymphoma (MCL, n=5); follicular lymphoma (FL, n=4); diffuse large B-cell lymphoma (n=2); splenic marginal zone B-cell lymphoma (SMZL, n=2)] were stimulated in vitro twice with TCL165-79 peptide and stained with TCL171-78 tetramer or HIV Gag77-85 tetramer. Representative data of the tetramer staining (FIG. 7A) and results from all samples analyzed (FIG. 7B) are shown. P value on the top of graph represents comparison between normal donors and all lymphoma patient samples. P values to the right represent comparison between normal donors and patients from each lymphoma subtype. All P values were calculated by two-tailed Student's t test.
Flow cytometry. For intracellular staining, tumor or normal B cells were first surface stained with CD3 and CD20 and then fixed and permeabilized using BD Biosciences Cytofix/Cytoperm™ Plus Fixation/Permeabilization kit as per manufacturer's instructions. […]
In general terms: A flow cytometer gives signals particle by particle.

For the next assay, the target named is T1, HLA-A2 (Homo sapiens, UniProt P04439, D140Y/D185E/D98H/E176V/E277Q/G131W/G231S/I119V/I121R/I166T/I218V/L300P/L318F/N151K/N90K/P208A/P217A/Q86G/Q94H/R138H/R169H/T345S).
T1 construct: endogenous in cells; host or cells: T2 hybridoma cells (TAP-deficient, HLA-A2+)
Nature of the assay: HLA-A2-binding assay (T2 binding index). The note with it: T2 cells, 20 μg/ml peptide, 24 hours. As for the experimental part: as §2
TAP-deficient T2 cells were incubated with 20 μg/ml of peptides and 3 μg/ml of β2-microglobulin (Sigma-Aldrich, Cat # M4890) for 24 hours at 37° C. and 5% CO2 in air. The cells were then stained with anti-HLA-A2 PE antibody (BD Biosciences, Cat #560168), and the level of HLA-A2 expression was determined by flow cytometry. […]

The subject of assay [1] is TCL165-79 peptide-specific T cells. Put plainly: IFN-γ ELISA of peptide-specific T cells with peptide-pulsed T2 cells or B lymphoblastoid cell lines. As to conditions: normal donor-derived T cells; 18 hours. It is filed as cell-based, human. As for the experimental part: as §1, with “All cytotoxicity assays were performed in triplicate wells and mean and standard deviation are shown.” left out
as §2, with “(FIG. 4A) TCL165-79 peptide-specific T cells derived from HLA-A2^+ normal donors were incubated in the presence or absence of T2 cells and TCL165-79 derived truncated peptides (SEQ ID NOS:1-2; SEQ ID NOS:12-17; SEQ ID NOS:3-11; and SEQ ID NO:18) Flu matrix peptide (FMP58-66) and Gag77-85 peptide were used as controls.” left out
as §3

In assay [2] the test system is autologous FL tumor cells. Nature of the assay: Mechanism of cytotoxicity of TCL1-specific CTLs against autologous follicular lymphoma cells. As to conditions: effector:target 20:1; 4 hour chromium-51 release; antibodies 10 μg/ml. It is filed as cell-based, human. The protocol:
FIG. 10: Mechanism of cytotoxicity of TCL1-specific CTLs against autologous follicular lymphoma cells. TCL1-specific T cells were generated from PBMC obtained from a FL patient and cultured with autologous FL tumor cells preincubated with or without 10 μg/ml of MHC class I, class II, and isotype control antibodies at a ratio of 20:1 (Effector:Target). A standard 4 hour chromium-51 release assay was performed. MHC class I but not MHC class II or isotype control antibodies inhibited the cytolysis autologous lymphoma cells.

Where [3] appears, read: PBMC of HLA-A2+ lymphoma patients (N=15).

Regarding LLPIMWQLY [TCL171-79], the “lysis of T2 cells pulsed with truncated peptides by TCL165-79 peptide-specific T cells” value (from here on “lysis of T2 cells pulsed”) in the assay on T2 cells was “specifically lysed”.

Take LLPIMWQL [TCL171-78]: in the assay on CD8+ T cells (setting [3]), the “percentage of tetramer positive CD8+ T cells, median” value is listed as 2.8% and the “percentage of tetramer positive CD8+ T cells, range” value is recorded as 0.88-6%. In the assay on CD8+ T cells (T-cell lines from lymphoma patients, TCL171-78 tetramer), the “tetramer positive CD8+ T cells” value is on record as 10.8-23%. Further, in the assay with CD8+ T cells (normal donor PBMC (N=8)), the “percentage of tetramer positive CD8+ T cells, median” value is 1.35% and the “percentage of tetramer positive CD8+ T cells, range” value is 0.38-2.2%. Besides, the “tetramer positive TCL165-79 peptide-specific CD8+ T cells” value in the assay on CD8+ T cells (normal donor-derived T cell line, TCL171-78 tetramer) was determined as 8.2%. In the assay with HLA-A2, the “binding to HLA-A2” value is recorded as “bound to HLA-A2”. Also, the “lysis of T2 cells pulsed” value in the assay on T2 cells was “specifically lysed”. The “IFN-γ production by TCL165-79 peptide-specific T cells with T2 cells pulsed with truncated peptides” value in assay [1] is “induced significant IFN-γ production”.

SLLPIMWQL [TCL170-79]: the “lysis of T2 cells pulsed” value in the assay with T2 cells is “specifically lysed”.

Turning to `C/C=C/[C@H]1O[C@@](O)([C@@H](C)[C@H](O)[C@H](C)[C@H]2OC(=O)/C(OC)=C/C(C)=C/[C@@H](C)[C@@H](O)[C@@H](CC)[C@@H](O)[C@H](C)C/C(C)=C/C=C/[C@@H]2OC)C[C@@H](O[C@H]2C[C@@H](O)[C@H](OC(N)=O)[C@@H](C)O2)[C@@H]1C` [Concanamycin A], in assay [2], the “inhibition of cytolysis of autologous lymphoma cells by TCL1-specific CTLs” value was “significantly inhibited”.
